From BindingDB's records for doi:10.7270/Q2NS0S8J (University of Pittsburgh, 2007)

Target: T1, M-phase inducer phosphatase 2 (Homo sapiens, UniProt P30305)
T1 sequence (P30305 whole entry): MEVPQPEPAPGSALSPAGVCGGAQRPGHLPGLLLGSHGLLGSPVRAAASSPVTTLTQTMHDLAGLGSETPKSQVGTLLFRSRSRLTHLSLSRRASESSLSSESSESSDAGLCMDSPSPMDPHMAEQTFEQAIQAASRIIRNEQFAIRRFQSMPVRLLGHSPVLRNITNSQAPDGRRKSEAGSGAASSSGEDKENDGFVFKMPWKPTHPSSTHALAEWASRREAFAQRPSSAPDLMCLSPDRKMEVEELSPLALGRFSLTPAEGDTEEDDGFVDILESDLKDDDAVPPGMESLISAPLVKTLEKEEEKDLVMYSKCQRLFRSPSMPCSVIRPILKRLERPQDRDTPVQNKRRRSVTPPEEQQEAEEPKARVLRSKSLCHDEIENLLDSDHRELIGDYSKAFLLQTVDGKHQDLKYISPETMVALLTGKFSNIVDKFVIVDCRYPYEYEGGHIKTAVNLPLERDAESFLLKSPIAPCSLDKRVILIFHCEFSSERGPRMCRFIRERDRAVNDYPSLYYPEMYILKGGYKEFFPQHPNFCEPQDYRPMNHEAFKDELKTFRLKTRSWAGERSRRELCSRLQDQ
Test: Cdc25B phosphatase blockers with beta-mercaptoethanol – biochemical, beta-mercaptoethanol present, catalytic domain, IC50, Cdc25B inhibitor project, late-stage follow-up (AID 670)

| Compound | IC50 [µM] |
| --- | --- |
| [O-]/[N+](=C\c1ccncc1)c1ccccc1 | > 50 |
| Oc1nc(Nc2ccccc2)cc2ccccc12 [MLS000043701] | > 50 |
| Cc1ccc2c(c1C)NC(C(=O)O)C1CC=CC21 (stereo not given) | 4.2 |
| COc1ccc2noc3c2c1C(=O)c1ccccc1-3 [MLS000106874] | > 50 |
| [O-]/[N+](=C\c1ccc(OC(F)F)cc1)c1ccccc1 [1-[4-(difluoromethoxy)phenyl]-N-phenylmethanimine oxide] | > 50 |
| O=C(O)C1Nc2c(O)cccc2C2C=CCC12 (stereo not given) | 7.42 |
| Cn1ncnc2c(=O)n(C)c(=O)nc1-2 | 32.4 |
| O=C(Nc1ccc2nc(-c3ccco3)c(-c3ccco3)nc2c1)N1CCCCCC1 | 19.2 |
| Cc1ccccc1Nc1cc2ccccc2c(O)n1 [3-[(2-methylphenyl)amino]-2H-isoquinolin-1-one] | > 50 |
| O=C1Cc2ccccc2C(=O)N1CCc1ccccc1 [2-(2-phenylethyl)-4H-isoquinoline-1,3-dione] | > 50 |
| CCOc1ccc2noc3c2c1C(=O)c1ccccc1-3 [MLS000106837] | > 50 |
| CC(=O)Nc1cc(OC(C)=O)c2nonc2c1OC(C)=O [Acetic acid 7-acetoxy-5-acetylamino-benzo[1,2,5]oxadiazol-4-yl ester] | > 50 |
| CCOC(=O)C(C(=O)OCC)c1cc(Br)c2noc3c2c1C(=O)c1ccccc1-3 [MLS000038842] | > 50 |
| c1ccc(CSc2nnc(-c3ccco3)c(-c3ccco3)n2)cc1 [MLS-0029114.0001] | 10.3 |
| Nc1cccc2cnccc12 [isoquinolin-5-amine] | > 50 |
| N#Cc1c(N)sc(=S)c2c1CCN(Cc1ccccc1)C2 [3-Amino-7-benzyl-1-thioxo-5,6,7,8-tetrahydro-1H-thiopyrano[3,4-c]pyridine-4-carbonitrile] | 33.1 |
| O=C(NC1(O)C(=O)c2ccccc2C1=O)c1ccccc1 [N-(2-hydroxy-1,3-dioxo-2-indenyl)benzamide] | > 50 |
| Cc1ccc2c(c1)C1C=CCC1C(C(=O)O)N2 (stereo not given) [MLS-0067149.0001] | 5.2 |
| COc1cccc2c(C)c(C(=O)O)[nH]c12 | 6.35 |
| O=C1C=Cc2ccccc2C1=O [1,2-dihydronaphthalene-1,2-dione] | 20.4 |
| CCn1nc(-c2cccs2)nc2c(=O)n(C)c(=O)nc1-2 [1-ethyl-6-methyl-3-thiophen-2-yl-pyrimido[5,4-e][1,2,4]triazine-5,7-dione] | 41.8 |
| CCn1nc(-c2ccccc2)nc2c(=O)n(C)c(=O)nc1-2 [1-Ethyl-6-methyl-3-phenyl-1H-pyrimido[5,4-e][1,2,4]triazine-5,7-dione] | > 50 |
| COc1ccc(Br)cc1C=c1sc2nc(-c3ccco3)nn2c1=O [5-[(5-bromanyl-2-methoxy-phenyl)methylidene]-2-(furan-2-yl)-[1,3]thiazolo[3,2-b][1,2,4]triazol-6-one] | 1.78 |
| Cc1c(N=c2c(=O)c3ccccc3c2=O)c(=O)n(-c2ccccc2)n1C [MLS000105950] | > 50 |
| N#Cc1c(N2CCCC2)nc(N)c2c(N)nc(N3CCCC3)cc12 [SMR000061605] | > 50 |
